From ChEMBL document CHEMBL1201861, “Genomics of Drug Sensitity in Cancer screening data, Wellcome Trust Sanger Institute”

Tests used:
HCC2157 = test: cells; type: functional, cell-based; conditions: Homo sapiens;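 also: growth inhibition of the cancer cell line, read out as cell viability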
Description: SANGER: Inhibition of human HCC2157 cell growth in a cell viability assay.

Detroit 562 = test: cells; type: functional, cell-based, Homo sapiens; conditions: Homo sapiens, Detroit 562;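 also: growth inhibition of human Detroit 562 cells, read out by a cell viability assay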
Description: SANGER: Inhibition of human Detroit562 cell growth in a cell viability assay.

NCI-H1666 = test: cells; type: functional, cell-based; conditions: Homo sapiens;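 also: growth inhibition of the cell line, read out with a cell viability assay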
Description: SANGER: Inhibition of human NCI-H1666 cell growth in a cell viability assay.

NCI-H522 = test: cells; type: functional, cell-based, Homo sapiens; conditions: Homo sapiens, NCI-H522;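 also: cell viability assay measuring growth inhibition of human NCI-H522 cells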
Description: SANGER: Inhibition of human NCI-H522 cell growth in a cell viability assay.

EW-22 = test: cells; type: functional, cell-based; conditions: Homo sapiens;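 also: growth inhibition of the EW-22 cell line, measured with a cell viability readout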
Description: SANGER: Inhibition of human EW-22 cell growth in a cell viability assay.

ES1 = test: cells; type: functional, cell-based, Homo sapiens; conditions: Homo sapiens, ES1;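 also: growth inhibition of ES1 cells, read out with a cell viability assay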
Description: SANGER: Inhibition of human ES1 cell growth in a cell viability assay.

NB5 = test: cells; type: functional, cell-based, Homo sapiens; conditions: Homo sapiens, NB5;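 also: growth inhibition of NB5 cells, read out as cell viability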
Description: SANGER: Inhibition of human NB5 cell growth in a cell viability assay.

NCI-H460 = test: cells; type: functional, cell-based, Homo sapiens; conditions: Homo sapiens, NCI-H460;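 also: cell viability assay scoring growth inhibition of human NCI-H460 cells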
Description: SANGER: Inhibition of human NCI-H460 cell growth in a cell viability assay.

RPMI-7951 = test: cells; type: functional, cell-based, Homo sapiens; conditions: Homo sapiens, RPMI-7951
Description: SANGER: Inhibition of human RPMI-7951 cell growth in a cell viability assay.

C32 = test: cells; type: functional, cell-based, Homo sapiens; conditions: Homo sapiens, C32;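 also: cell viability assay, with IC50 reflecting inhibition of C32 cell growth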
Description: SANGER: Inhibition of human C32 cell growth in a cell viability assay.

SW900 = test: cells; type: functional, cell-based; conditions: Homo sapiens;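 also: IC50 is the concentration that inhibits SW900 cell growth, measured by a cell viability assay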
Description: SANGER: Inhibition of human SW900 cell growth in a cell viability assay.

MV4-11 = test: cells; type: functional, cell-based, MV-4-11; conditions: Homo sapiens;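 also: cell viability readout measuring growth inhibition of human MV-4-11 cells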
Description: SANGER: Inhibition of human MV-4-11 cell growth in a cell viability assay.

HSC-2 = test: cells; type: functional, cell-based, Homo sapiens; conditions: Homo sapiens, HSC-2;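 also: growth inhibition of human HSC-2 cells, read out by a cell viability assay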
Description: SANGER: Inhibition of human HSC-2 cell growth in a cell viability assay.

D-423MG = test: cells; type: functional, cell-based; conditions: Homo sapiens
Description: SANGER: Inhibition of human D-423MG cell growth in a cell viability assay.

CCRF-CEM = test: cells; type: functional, cell-based; conditions: Homo sapiens;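 also: inhibition of CCRF-CEM cell growth, measured by a cell viability assay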
Description: SANGER: Inhibition of human CCRF-CEM cell growth in a cell viability assay.

NCI-H630 = test: cells; type: functional, cell-based, Homo sapiens; conditions: Homo sapiens, NCI-H630;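 also: growth inhibition of NCI-H630 cells, read out with a cell viability assay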
Description: SANGER: Inhibition of human NCI-H630 cell growth in a cell viability assay.

CP50-MEL-B = test: cells; type: functional, cell-based, Homo sapiens; conditions: Homo sapiens, CP50-MEL-B;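 also: growth inhibition of the human cell line, measured with a cell viability read-out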
Description: SANGER: Inhibition of human CP50-MEL-B cell growth in a cell viability assay.

LB996-RCC = test: cells; type: functional, cell-based; conditions: Homo sapiens
Description: SANGER: Inhibition of human LB996-RCC cell growth in a cell viability assay.

J-RT3-T3-5 = test: cells; type: functional, cell-based; conditions: Homo sapiens;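 also: cell viability assay measuring growth inhibition of human J-RT3-T3-5 cells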
Description: SANGER: Inhibition of human J-RT3-T3-5 cell growth in a cell viability assay.

LB831-BLC = test: cells; type: functional, cell-based, Homo sapiens; conditions: Homo sapiens, LB831-BLC;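 also: growth inhibition of LB831-BLC cells, read out with a cell viability assay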
Description: SANGER: Inhibition of human LB831-BLC cell growth in a cell viability assay.

G-361 = test: cells; type: functional, cell-based, Homo sapiens; conditions: Homo sapiens, G-361
EM-2 = test: cells; type: functional, cell-based; conditions: Homo sapiens;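 also: growth inhibition of EM-2 cells, read out with a cell viability assay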
Description: SANGER: Inhibition of human EM-2 cell growth in a cell viability assay.

SF-539 = test: cells; type: functional, cell-based, Homo sapiens; conditions: Homo sapiens, SF-539;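 also: Read-out is a cell viability assay, with IC50 reflecting inhibition of cell growth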
Description: SANGER: Inhibition of human SF539 cell growth in a cell viability assay.

EFM-19 = test: cells; type: functional, cell-based, Homo sapiens; conditions: Homo sapiens, EFM-19;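 also: growth inhibition of human EFM-19 cells, measured in a cell viability assay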
Description: SANGER: Inhibition of human EFM-19 cell growth in a cell viability assay.

A549 = test: cells; type: functional, cell-based; conditions: Homo sapiens;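 also: growth inhibition of A549 cells, read out with a cell viability assay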
Description: SANGER: Inhibition of human A549 cell growth in a cell viability assay.

HEL = test: cells; type: functional, cell-based, Homo sapiens; conditions: Homo sapiens, HEL;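 also: growth inhibition of HEL cells, read out with a cell viability assay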
Description: SANGER: Inhibition of human HEL cell growth in a cell viability assay.

DMS-273 = test: cells; type: functional, cell-based, Homo sapiens; conditions: Homo sapiens, DMS-273
Description: SANGER: Inhibition of human DMS-273 cell growth in a cell viability assay.

Calu-6 = test: cells; type: functional, cell-based, Homo sapiens; conditions: Homo sapiens, Calu-6;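 also: growth of human Calu-6 cells, read out by a cell viability assay, IC50 marking inhibition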
Description: SANGER: Inhibition of human Calu-6 cell growth in a cell viability assay.

NB6 = test: cells; type: functional, cell-based, Homo sapiens; conditions: Homo sapiens, NB6;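 also: growth inhibition of NB6 cells, read out by a cell viability assay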
Description: SANGER: Inhibition of human NB6 cell growth in a cell viability assay.

EB-3 = test: cells; type: functional, cell-based; conditions: Homo sapiens;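 also: human EB-3 cells, growth inhibition read out via a cell viability assay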
Description: SANGER: Inhibition of human EB-3 cell growth in a cell viability assay.

NCI-H716 = test: cells; type: functional, cell-based; conditions: Homo sapiens;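 also: growth inhibition of human NCI-H716 cells, measured by a cell viability assay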
Description: SANGER: Inhibition of human NCI-H716 cell growth in a cell viability assay.

KMS-12-PE = test: cells; type: functional, cell-based; conditions: Homo sapiens;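 also: growth inhibition of human KMS-12-PE cells, measured with a cell viability assay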
Description: SANGER: Inhibition of human KMS-12-PE cell growth in a cell viability assay.

NCI-H1694 = test: cells; type: functional, cell-based; conditions: Homo sapiens;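 also: cell viability assay measuring inhibition of growth in human NCI-H1694 cells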
Description: SANGER: Inhibition of human NCI-H1694 cell growth in a cell viability assay.

SK-MM-2 = test: cells; type: functional, cell-based; conditions: Homo sapiens;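 also: growth inhibition of human SK-MM-2 cells, read out with a cell viability assay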
Description: SANGER: Inhibition of human SK-MM-2 cell growth in a cell viability assay.

Raji = test: cells; type: functional, cell-based; conditions: Homo sapiens;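 also: cell viability assay measuring inhibition of Raji cell growth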
Description: SANGER: Inhibition of human Raji cell growth in a cell viability assay.

GDM-1 = test: cells; type: functional, cell-based; conditions: Homo sapiens;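 also: cell viability readout used to measure growth inhibition of human GDM-1 cells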
Description: SANGER: Inhibition of human GDM-1 cell growth in a cell viability assay.

PF-382 = test: cells; type: functional, cell-based; conditions: Homo sapiens
Description: SANGER: Inhibition of human PF-382 cell growth in a cell viability assay.

NCI-H187 = test: cells; type: functional, cell-based; conditions: Homo sapiens;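 also: growth inhibition of NCI-H187 cells, read out as cell viability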
Description: SANGER: Inhibition of human NCI-H187 cell growth in a cell viability assay.

YT = test: cells; type: functional, cell-based; conditions: Homo sapiens
Description: SANGER: Inhibition of human YT cell growth in a cell viability assay.

NCI-H1882 = test: cells; type: functional, cell-based; conditions: Homo sapiens;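 also: growth inhibition of the cell line, determined with a viability assay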
Description: SANGER: Inhibition of human NCI-H1882 cell growth in a cell viability assay.

OPM-2 = test: cells; type: functional, cell-based; conditions: Homo sapiens;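 also: growth of OPM-2 cells measured with a viability assay, IC50 for suppression of proliferation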
Description: SANGER: Inhibition of human OPM-2 cell growth in a cell viability assay.

CPC-N = test: cells; type: functional, cell-based; conditions: Homo sapiens;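 also: growth inhibition of CPC-N cells, with a cell viability assay as the readout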
Description: SANGER: Inhibition of human CPC-N cell growth in a cell viability assay.

IMR-5 = test: cells; type: functional, cell-based; conditions: Homo sapiens;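 also: growth inhibition of human IMR-5 cells, read out with a cell viability assay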
Description: SANGER: Inhibition of human IMR-5 cell growth in a cell viability assay.

SUP-T1 = test: cells; type: functional, cell-based; conditions: Homo sapiens;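 also: growth inhibition of human SUP-T1 cells, read out as cell viability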
Description: SANGER: Inhibition of human SUP-T1 cell growth in a cell viability assay.

EHEB = test: cells; type: functional, cell-based; conditions: Homo sapiens;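 also: growth inhibition of human EHEB cells, read out with a cell viability assay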
Description: SANGER: Inhibition of human EHEB cell growth in a cell viability assay.

NCI-H2171 = test: cells; type: functional, cell-based; conditions: Homo sapiens;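 also: growth inhibition of human NCI-H2171 cells, read out by a cell viability assay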
Description: SANGER: Inhibition of human NCI-H2171 cell growth in a cell viability assay.

EVSA-T = test: cells; type: functional, cell-based, Homo sapiens; conditions: Homo sapiens, EVSA-T;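 also: growth inhibition of EVSA-T cells, read out with a cell viability assay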
Description: SANGER: Inhibition of human EVSA-T cell growth in a cell viability assay.

NCI-H719 = test: cells; type: functional, cell-based; conditions: Homo sapiens;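 also: growth inhibition of the cultured cell line, read out with a viability assay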
Description: SANGER: Inhibition of human NCI-H719 cell growth in a cell viability assay.

ST486 = test: SANGER: Inhibition of human ST486 cell growth in a cell viability assay.; type: functional, cell-based
LC-1F = test: cells; type: functional, cell-based; conditions: Homo sapiens;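 also: growth inhibition of human LC-1F cells, read out with a cell viability assay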
Description: SANGER: Inhibition of human LC-1F cell growth in a cell viability assay.

SIMA = test: cells; type: functional, cell-based, Homo sapiens; conditions: Homo sapiens, SIMA;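 also: growth inhibition of SIMA cells, measured with a cell viability readout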
Description: SANGER: Inhibition of human SIMA cell growth in a cell viability assay.

BL-70 = test: SANGER: Inhibition of human BL-70 cell growth in a cell viability assay.; type: functional, cell-based
NALM-6 = test: cells; type: functional, cell-based; conditions: Homo sapiens;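 also: growth inhibition of NALM-6 cells, read out with a cell viability assay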
Description: SANGER: Inhibition of human NALM-6 cell growth in a cell viability assay.

DMS-153 = test: cells; type: functional, cell-based; conditions: Homo sapiens
Description: SANGER: Inhibition of human DMS-153 cell growth in a cell viability assay.

NCI-H889 = test: cells; type: functional, cell-based; conditions: Homo sapiens;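 also: cell growth inhibition of the cell line, read out with a viability assay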
Description: SANGER: Inhibition of human NCI-H889 cell growth in a cell viability assay.

NCI-H2081 = test: cells; type: functional, cell-based; conditions: Homo sapiens;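 also: growth inhibition of human NCI-H2081 cells, read out with a cell viability assay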
Description: SANGER: Inhibition of human NCI-H2081 cell growth in a cell viability assay.

REH = test: cells; type: functional, cell-based; conditions: Homo sapiens;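 also: growth inhibition of REH cells determined with a cell viability read-out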
Description: SANGER: Inhibition of human REH cell growth in a cell viability assay.

CHP-126 = test: cells; type: functional, cell-based; conditions: Homo sapiens
Description: SANGER: Inhibition of human CHP-126 cell growth in a cell viability assay.

Measured: IC50

CCOc1nc(NC(=O)Cc2cc(OC)ccc2OC)cc(N)c1C#N
> 10000 nM: HCC2157 | Detroit 562 | NCI-H1666 | NCI-H522 | EW-22 | ES1 | NB5 | NCI-H460 | RPMI-7951 | C32 | SW900 | MV4-11 | HSC-2 | D-423MG | CCRF-CEM | NCI-H630 | CP50-MEL-B | LB996-RCC | J-RT3-T3-5 | LB831-BLC | G-361 | EM-2 | SF-539 | EFM-19 | A549 | HEL | DMS-273 | Calu-6 | NB6

CC(=O)O[C@@H]1[C@@H](OC(C)=O)[C@@H](O)[C@H](Oc2c(-c3ccc(O)cc3)oc3cc(O)cc(O)c3c2=O)O[C@H]1C
5650 nM: HCC2157
> 10000 nM: Detroit 562 | NCI-H1666 | NCI-H522 | EW-22 | ES1 | NB5 | NCI-H460 | RPMI-7951 | C32 | SW900 | MV4-11 | HSC-2 | D-423MG | CCRF-CEM | NCI-H630 | CP50-MEL-B | LB996-RCC | J-RT3-T3-5 | LB831-BLC | G-361 | EM-2 | SF-539 | EFM-19 | A549 | HEL | DMS-273 | Calu-6 | NB6

O=c1cc(-c2cccc3c2Sc2ccccc2S3)oc(N2CCOCC2)c1 [KU-55933]
> 10000 nM: HCC2157 | Detroit 562 | NCI-H1666 | NCI-H522 | EW-22 | ES1 | NB5 | NCI-H460 | RPMI-7951 | C32 | SW900 | MV4-11 | HSC-2 | D-423MG | CCRF-CEM | NCI-H630 | CP50-MEL-B | LB996-RCC | J-RT3-T3-5 | LB831-BLC | G-361 | EM-2 | SF-539 | EFM-19 | A549 | HEL | DMS-273 | Calu-6 | NB6

CS(=O)(=O)CCNCc1ccc(-c2ccc3ncnc(Nc4ccc(OCc5cccc(F)c5)c(Cl)c4)c3c2)o1 [LAPATINIB]
1360 nM: LB996-RCC
1380 nM: LC-1F
not listed: Detroit 562 | NCI-H1666 | NCI-H522 | EW-22 | NCI-H460 | RPMI-7951 | C32 | SW900 | HSC-2 | D-423MG | NCI-H630 | CP50-MEL-B | G-361 | EFM-19 | A549 | DMS-273
> 2000 nM: all other assays above

C=CCNC1=C2C[C@@H](C)C[C@H](OC)[C@H](O)[C@@H](C)/C=C(\C)[C@H](OC(N)=O)[C@@H](OC)/C=C\C=C(/C)C(=O)NC(=CC1=O)C2=O [TANESPIMYCIN]
139 nM: LB831-BLC
19.7 nM: NCI-H460
339 nM: DMS-273
878 nM: NCI-H522
737 nM: EFM-19
341 nM: HSC-2
> 1000 nM: EW-22 | ES1 | NB5 | SW900 | D-423MG | CCRF-CEM | NCI-H630 | J-RT3-T3-5 | EM-2 | HEL | Calu-6 | NB6
388 nM: HCC2157
< 3.91 nM: A549
7.17 nM: RPMI-7951
336 nM: LB996-RCC
42.4 nM: Detroit 562
68 nM: MV4-11
227 nM: G-361
3.04 nM: C32
128 nM: NCI-H1666
34.5 nM: CP50-MEL-B
66.8 nM: SF-539
